Measured values from patent US20100196376A1, “METHOD FOR REDUCING ALLERGEN-INDUCED AIRWAY HYPERRESPONSIVENESS” (National Jewish Health, priority 2001, published 2010).

Tests used:
Format in all cases: in vivo, mouse (BALB/c)
[1] = system: ovalbumin-sensitized and challenged mice (tissue infiltrating eosinophils); test: Tissue infiltrating eosinophils, MBP immunoperoxidase and morphometric analysis of lung sections; details: i.p. 2 h prior to each allergen challenge; CGRP 20 μg/kg, CGRP fragment 8-37 100 μg/kg (FIG. 3D)
Procedure: For histology and immunohistochemistry, the lungs of the mice were inflated and fixed with 4% paraformaldehyde in PBS for 24 h at 4° C. followed by processing into paraffin. Five μm-thick sections were cut from the paraffin blocks, deparaffinized and stained with hematoxylin and eosin for routine histology.
The pan neuronal marker PGP9.5, CGRP and tissue eosinophils were detected by immunoperoxidase. Unless otherwise stated, all incubations were carried out at room temperature. All washes were performed with TBS (50 mM TRIS-buffered saline pH 7.6) 3 times for 5 min. Endogenous peroxidase was blocked by incubation of tissue sections with H2O2 (0.3% in methanol) for 30 minutes. […]
For tissue eosinophils, the sections were pretreated for 5 min with 0.01% trypsin in TBS to retrieve antigens. […] CGRP was detected with a polyclonal rabbit anti-CGRP antibody (Biogenesis) diluted 1:200. […]
The data of immunohistochemistry were quantitatively analyzed (morphometric analysis) on a G-3 Macintosh computer using the National Institutes of Health (NIH) Scion Image analysis software. […]
The number of tissue infiltrating eosinophils was determined by counting all MBP-positive cells present in the airway wall including the adventitia. When eosinophils were present in tissue areas connecting blood vessels to adjacent airways only 50% of these cells were counted for these airways. […]

[2] = system: ovalbumin-sensitized and challenged mice (airway hyperresponsiveness to methacholine); test: Airway function: change in lung resistance (RL) and dynamic compliance (Cdyn) after aerosolized methacholine, ovalbumin-sensitized and challenged mice
Procedure: (§1) Mice (8/group/experiment) were sensitized by intraperitoneal injection of 20 μg of ovalbumin (Grade V, Sigma) emulsified in 2.25 mg alum (Alum® Inject; Pierce, Rockford, Ill.) in a total volume of 100 μl on days 0 and 14. On days 28, 29 and 30, mice were challenged via the airways by a 20-minute inhalation exposure to aerosols of ovalbumin (1% in saline) obtained from a DeVilbiss ultrasonic nebulizer (particle size 1-5 μm). Age-matched, control animal groups (8/group/experiment) consisted of mice injected with alum alone (non-sensitized) and exposed either to aerosols of saline or to aerosolized ovalbumin, and mice sensitized to ovalbumin but subsequently exposed to aerosols of saline.
Briefly, mice were sensitized and challenged to ovalbumin as described in Example 1. Airway function was assessed in vivo in anesthetized, mechanically ventilated mice as previously described (see, for example, Takeda et al., 1997, J. Exp. Med. 186, 449-454) by measuring changes in lung resistance (RL) and dynamic compliance (Cdyn) in response to intratracheal challenge with aerosolized methacholine at doses of 1.56, 3.125, 6.25 and 12.5 mg/ml in saline. Baseline values were recorded from data obtained after intra-tracheal challenge with aerosolized saline. The data are presented in percent of change from baseline RL, and Cdyn.

[3] = system: ovalbumin-sensitized and challenged mice (BAL eosinophils); test: Bronchoalveolar lavage (BAL) differential cell counts, ovalbumin-sensitized and challenged mice; details: i.p. 2 h prior to each allergen challenge; CGRP 20 μg/kg, CGRP fragment 8-37 100 μg/kg (FIG. 3C)
Procedure: as §1
Following assessment of airway function, the lungs were lavaged once with 1 ml of sterile Hank's balanced salt solution (HBSS) pre-warmed at 37° C. The recovered BAL fluids were placed in Eppendorf tubes and were centrifuged at 4° C. for 5 min at 1,500 rpm. The obtained cell pellets were resuspended in 200 μl of sterile phosphate-buffered saline (PBS) and total cell numbers were determined from counting of crystal violet-stained aliquots using a hemacytometer. Differential cell counts were determined from cytospin preparations stained with Leukostat (Fisher Diagnostics, Pittsburgh, Pa.). At least 200 cells were counted from each slide in a blinded fashion.

Substance: CGRP(8-37): highly selective CGRP receptor antagonist, human synthetic CGRP (fragment 8-37), from Sigma
- Numbers of tissue infiltrating eosinophils [1]: no significant effect
- Inhibitory effect of CGRP on AHR after pretreatment with the receptor antagonist ([2]; CGRP i.p. after allergen challenge period, animals pretreated with CGRP(8-37) (FIGS. 4A, 4B)): totally neutralized
- AHR in sensitized mice ([2]; administration after the period of allergen challenge, CGRP i.p. at 2 h prior to assessment of airway function (FIGS. 4A, 4B)): did not alter
- Extent / development of AHR ([2]; i.p. 2 h prior to each allergen challenge, CGRP 20 μg/kg, CGRP fragment 8-37 100 μg/kg (FIGS. 3A, 3B)): did not produce any significant change
- Numbers of BAL eosinophils [3]: no significant effect
